Where two headings read alike, the source gives them in different places.

Data set [1] can be described thus: Acute toxicity, oral, mice (LD50). The note with it: in vivo, mouse, mortality at 72 hours, P = presumption. As to the method:
a. DS male mice (20-25 g) are orally administered a suspension of test compound with gum arabic. The mortality at 72 hours is determined and the LD50 is calculated.

Another data set deals with JCL-Wistar female rats. Kind of data set: Anti-inflammatory activity: carrageenin foot edema. It is filed as in vivo. The note with it: rat, oral, 50 mg/kg, 1.0% carrageenin, swelling 3 hours later. Here is the method:
A 0.9% saline solution (0.05 ml) containing 1.0% carrageenin is used as phlogistic agent. After 30 minutes JCL-Wistar female rats (180-200 g) are orally administered a test compound, the phlogistic agent is injected subcutaneously into the plantar of the foots of the rats. The volume of swelling is measured 3 hours later and anti-edema activity is determined by calculating the percentage ratio of the edematous volume of medicated foot of that of non-medicated foot.
For orientation: In the carrageenan paw model, swelling and tenderness develop within hours.

In data set [2] the test system is SLC-Wistar female rats. Description: Analgesic activity c: Randall and Selitto method. Format: in vivo, rat. Particulars: 2 h, read-out: Analgesic Activity c ED50. As to the method:
c. Randall and Selitto method A test compound is orally given SLC-Wistar female rats (150-170 g). Five minutes later 0.1 ml of 20% yeast suspension is subcutaneously injected into the plantar tissue of the foot.

Data set [3] relates to SLC-Wistar female rats. Description: Analgesic activity b: foot-licking method. It is filed as in vivo, rat. The note with it: read-out: Analgesic Activity b ED50.
The subject of a further data set is DS male mice. Description: Analgesic activity a: acetic acid writhing method. It is filed as in vivo, mouse. The note with it: read-out: Analgesic Activity a ED50. As to the method:
a. Acetic acid writing method
DS male mice (20-23 g) are treated with an intraperitoneal injection of 0.1 ml/10 g of 0.6% acetic acid 30 minutes after oral administration of a test compound. The number of times of writhing for 10 minutes is counted and ED50 is calculated.
Background: Writhing tests count abdominal constrictions after an irritant is injected.

Data set [4] can be described thus: Acute toxicity, oral, rats (LD50). The note with it: in vivo, rat, mortality on the 15th day. As to the method:
b. JCL-Wistar female rats (180-220 g) are orally administered a suspension of test compound with gum arabic. The mortality on the 15th day is determined and the LD50 is calculated.

Where [5] appears, read: rat, oral, 5 min before 20% yeast s.c. in foot, pain threshold at 120 minutes.
[6] abbreviates: rat, oral, 30 min before 3.7% formaldehyde s.c. in hind-paw, foot-licking for 50 minutes.
Setting [7] is: mouse, oral, 30 min before 0.6% acetic acid i.p., writhing counted for 10 minutes.

`CNCC1CCSc2[nH]c3ccccc3c21` (stereo not shown) [Comp. 1, 4-Methylaminomethyl-2,3,4,9-tetrahydrothiopyrano[2,3-b]indole]: the LD50 (as a rule, the dose expected to kill half of the subjects tested) at 72 h in data set [1] was 409 mg/kg. Besides, the “Anti-inflammatory Activity” value with JCL-Wistar female rats was determined as 66%. Besides, the 50% effective dose (ED50) (in general, the dose at which the effect has come halfway, by size or by number of responders) in the data set on SLC-Wistar female rats [2] (setting [5]) amounted to 8.4 mg/kg; with SLC-Wistar female rats [3] (setting [6]) it was 1.6 mg/kg; with DS male mice (setting [7]) it was 4.2 mg/kg. This compound also showed an LD50 at 360 h in data set [4] of 295 mg/kg.

In data set [1], `CNCC1CCSc2c1c1ccccc1n2C` (stereo not shown) [Comp. 2, 9-Methyl-4-methylaminomethyl-2,3,4,9-tetrahydrothiopyrano[2,3-b]indole] gave a 50% lethal dose (LD50) at 72 h of approximately 750 mg/kg. In addition, in the data set with JCL-Wistar female rats, the “Anti-inflammatory Activity” value was found to be 40%. Besides, the median effective dose (ED50) was 17.8 mg/kg with SLC-Wistar female rats [2] (setting [5]), 0.54 mg/kg in the data set on SLC-Wistar female rats [3] (setting [6]) and 21.2 mg/kg in the data set with DS male mice (setting [7]).

As for `CNCC1CCS(=O)(=O)c2[nH]c3ccccc3c21` (stereo not shown) [Comp. 3, 4-Methylaminomethyl-2,3,4,9-tetrahydrothiopyrano[2,3-b]indole S-dioxide], the median lethal dose (LD50) at 72 h in data set [1] was approximately 750 mg/kg. Moreover, the “Anti-inflammatory Activity” value in the data set on JCL-Wistar female rats was found to be 25%. Also, the ED50 worked out at 19.1 mg/kg with SLC-Wistar female rats [2] (setting [5]), 2.9 mg/kg in the data set on SLC-Wistar female rats [3] (setting [6]) and 11.7 mg/kg in the data set on DS male mice (setting [7]).

In data set [1], `CC(=O)n1c2c(c3ccccc31)C(CN(C)C)CCS2` (stereo not shown) [Comp. 4] registered an LD50 at 72 h of approximately 175 mg/kg. For the same compound, in the data set on JCL-Wistar female rats, the “Anti-inflammatory Activity” value is given as 44%. Moreover, the 50% effective dose (ED50) with SLC-Wistar female rats [2] (setting [5]) is 15.9 mg/kg; with SLC-Wistar female rats [3] (setting [6]), 4.7 mg/kg; with DS male mice (setting [7]), 21 mg/kg.

With `COc1ccc2c(c1)c(CC(=O)O)c(C)n2C(=O)c1ccc(Cl)cc1` [Idomethacin, reference compound], the LD50 at 72 h in data set [1] was 17 mg/kg. The 50% effective dose (ED50) in the data set on SLC-Wistar female rats [2] (po) worked out at 14 mg/kg; with SLC-Wistar female rats [3] (Rattus norvegicus, po) it was 65 mg/kg; in the data set on DS male mice (Mus musculus, po), 7 mg/kg. In data set [4], this compound returned a median lethal dose (LD50) at 360 h of 14 mg/kg.

In data set [1], `COc1cc(C)nc(-n2nc(C)cc2OC)n1` [Mepirizole, reference compound] came in with an LD50 at 72 h of 1150 mg/kg. The figures for the ED50 with SLC-Wistar female rats [2] (setting [5]), with SLC-Wistar female rats [3] (setting [6]) and in the data set on DS male mice (setting [7]) were 130 mg/kg, 13 mg/kg and 110 mg/kg, respectively. This compound also showed a 50% lethal dose (LD50) at 360 h in data set [4] of 552 mg/kg.

Source of the values: US4256640A, “Tetrahydrothiopyrano[2,3-b]indole derivatives” (Shionogi & Co., Ltd., priority 1978, dated 1981).
